# Results published in patent US5055396A, “Diagnostic methods and systems for quantifying APO AI” (Scripps Clinic and Research Foundation, priority 1987, dated 1991).
# Test system: MAB AI-18
# Test: Competitive RIA: inhibition of MAB AI-18 binding to solid-phase Apo AI/HDL by competitor antigen or peptide
# Parameters: species or system mouse
# Details: for ability of the peptide to immunologically mimic a native conserved epitope of Apo AI: FIG. 5, proline 99 deleted or substituted by glycine; for Immunoreactivity (concentration of peptide competitor required to achieve a B/Bo value of 0.5): competitive RIA, MAB AI-18 ascites 1:1.25×10^5, solid-phase Apo AI/HDL; for B/Bo: background-adjusted; for immunoreactivity values (in words): higher value represents a lower affinity; for expression of the epitope recognized by MAB AI-18 after NaOH treatment: NaOH treated Apo AI/HDL, 18 hours at about 20 degrees C
# Method: One hundred ul of PBS (0.15M NaCl, 0.01M NaPO4, pH 7.2) containing 10 ug/ml Apo AI/HDL were admixed to the wells of microtiter plates. The plates were maintained for 1 hour at 20 degrees C. on a rotating platform to allow the Apo AI/HDL to adhere to the wells and form solid supports. After aspirating excess liquid from the wells, 200 ul of block solution (3% BSA, 3% NGS in PBS) was admixed to each well, and the wells were maintained for 30 minutes at 20 degrees C. on a rotating platform. Subsequently, the blocking solution was removed by aspiration and the wells were washed 3 times with SPRIA buffer.
# In control wells either competing antigen or antibody was replaced by PBS containing 3% BSA.
# The immunoreaction admixtures were maintained about 16 hours at 4 degrees C. on a rotating platform to permit formation of solid-phase immunoreaction products. […] The labeling immunoreaction admixtures so formed were maintained for 4 hours at 4 degrees C. on a rotating platform.
# […] of serial 3 fold dilutions of each sample prepared in Table 3 were admixed as competitor in the RIA described in this Example.
# Fifty microliters of the stock of 2 fold serial dilutions of the stock were used as competitor in the RIA described in this Example.
Substance,Immunoreactivity (concentration of peptide competitor required to achieve a B/Bo value of 0.5),CPM of 125I-labeled solid phase immunoreaction product (competitor dilution 1:3) [CPM],B/Bo (competitor dilution 1:3),CPM of 125I-labeled solid phase immunoreaction product (competitor dilution 1:9) [CPM],B/Bo (competitor dilution 1:9),CPM of 125I-labeled solid phase immunoreaction product (competitor dilution 1:27) [CPM],B/Bo (competitor dilution 1:27),CPM of 125I-labeled solid phase immunoreaction product (competitor dilution 1:81) [CPM],B/Bo (competitor dilution 1:81),CPM of 125I-labeled solid phase immunoreaction product (competitor dilution 1:243) [CPM],B/Bo (competitor dilution 1:243),CPM of 125I-labeled solid phase immunoreaction product (competitor dilution 1:729) [CPM],B/Bo (competitor dilution 1:729),CPM of 125I-labeled solid phase immunoreaction product (competitor dilution Neat) [CPM],B/Bo (competitor dilution Neat),immunoreactivity values (in words),expression of the epitope recognized by MAB AI-18 after NaOH treatment,"slope of logit transformed competition data (competitor HDL or fresh plasma, FIG. 2)",ability of the peptide to immunologically mimic a native conserved epitope of Apo AI
AKVQGYLDDFQ [AI95-105 (G/P)],"> 10,000 ug protein/ml",,,,,,,,,,,,,,,,,,substantially decreases the ability of the peptide to immunologically mimic a native conserved epitope
AKVQPYLDDFQ [AI95-105],45 ug protein/ml,,,,,,,,,,,,,,,,,,
LEEVKAKVQPYLDDFQKKWQEE [AI90-111],9 ug protein/ml,,,,,,,,,,,,,,,,,,
VKAKVQPYL [AI93-101],"> 10,000 ug protein/ml",,,,,,,,,,,,,,,high immunoreactivity values,,,
QKKWQEEMELYR [AI105-116],"> 10,000 ug protein/ml",,,,,,,,,,,,,,,high immunoreactivity values,,,
SKDLEEVKAKVQPYLDDFQ [AI87-105],10 ug protein/ml,,,,,,,,,,,,,,,,,,
"YLDDFQ (UniProt P02647 124-129, looked up, fragment) [AI100-105]","> 10,000 ug protein/ml",,,,,,,,,,,,,,,high immunoreactivity values,,,
SKDLEEVKAKVQPYL [AI87-101],"8,400 ug protein/ml",,,,,,,,,,,,,,,high immunoreactivity values,,,
AKVQYLDDFQ [AI95-105 (-P)],"> 10,000 ug protein/ml",,,,,,,,,,,,,,,,,,substantially decreases the ability of the peptide to immunologically mimic a native conserved epitope
"KVQPYL (UniProt P02647 120-125, looked up, fragment) [AI96-101]","> 10,000 ug protein/ml",,,,,,,,,,,,,,,,,,
LDDFQKKWQEE [AI101-111],"> 10,000 ug protein/ml",,,,,,,,,,,,,,,high immunoreactivity values,,,

# Continued, in another order:
Immunoreactivity (concentration of peptide competitor required to achieve a B/Bo value of 0.5),CPM of 125I-labeled solid phase immunoreaction product (competitor dilution 1:3) [CPM],B/Bo (competitor dilution 1:3),CPM of 125I-labeled solid phase immunoreaction product (competitor dilution 1:9) [CPM],B/Bo (competitor dilution 1:9),CPM of 125I-labeled solid phase immunoreaction product (competitor dilution 1:27) [CPM],B/Bo (competitor dilution 1:27),CPM of 125I-labeled solid phase immunoreaction product (competitor dilution 1:81) [CPM],B/Bo (competitor dilution 1:81),CPM of 125I-labeled solid phase immunoreaction product (competitor dilution 1:243) [CPM],B/Bo (competitor dilution 1:243),CPM of 125I-labeled solid phase immunoreaction product (competitor dilution 1:729) [CPM],B/Bo (competitor dilution 1:729),CPM of 125I-labeled solid phase immunoreaction product (competitor dilution Neat) [CPM],B/Bo (competitor dilution Neat),immunoreactivity values (in words),expression of the epitope recognized by MAB AI-18 after NaOH treatment,"slope of logit transformed competition data (competitor HDL or fresh plasma, FIG. 2)",Substance,ability of the peptide to immunologically mimic a native conserved epitope of Apo AI
,2542,0.301,4799,0.527,5786,0.718,6745,0.841,7270,0.090,7255,0.907,965,0.099,,,,"Sample A: Apo AI/HDL, no NaOH treatment control, pH 6.26 [reference compound]",
,185,-.001,281,0.011,342,0.019,516,0.041,744,0.071,1295,0.141,222,0.004,,decrease in expression of the epitope,,"F: NaOH treated Apo AI/HDL, 50 ul 1N NaOH, pH 11.86",
,2348,0.277,3778,0.460,5057,0.624,5868,0.729,6380,0.794,6679,0.833,1152,0.123,,,-2.03,Apo AI/HDL: Apo AI when it is present on HDL particles [reference compound],
,1174,0.126,2746,0.328,3854,0.470,5220,0.645,6385,0.795,6917,0.863,589,0.051,,decrease in expression of the epitope,,"D: NaOH treated Apo AI/HDL, 5 ul 1N NaOH, pH 10.67",
,2479,0.293,4502,0.553,6005,0.746,6618,0.825,7277,0.909,7485,0.936,1070,0.112,,stable to NaOH treatments,,"C: NaOH treated Apo AI/HDL, 50 ul 0.01N NaOH, pH 7.04",
,553,0.046,881,0.088,1543,0.173,2283,0.268,3338,0.404,4918,0.607,263,0.009,,decrease in expression of the epitope,,"E: NaOH treated Apo AI/HDL, 15 ul 1N NaOH, pH 11.33",
,305,0.016,339,0.019,497,0.039,771,0.074,1157,0.124,1891,0.218,195,0.000,,decrease in expression of the epitope,,"G: NaOH treated Apo AI/HDL, 250 ul 1N NaOH, pH 12.85",
,2852,0.341,4399,0.540,6195,0.771,6988,0.872,7483,0.936,7406,0.926,1110,0.118,,stable to NaOH treatments,,"B: NaOH treated Apo AI/HDL, 5 ul 0.01N NaOH, pH 6.34",
